In brackets after ≈: the same amount, converted by molar mass.
How the values were obtained:
Type in all cases: cell-based
[1] = test system: Staphylococcus aureus ATCC 43300 methicillin-resistant MRSA; test: Broth microdilution, S. aureus ATCC 43300 MRSA
In short: (§1)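 Compounds are diluted twofold, starting at 1000 µg/mL, in Mueller-Hinton medium, supplemented with 2% glucose for the yeast strains. Wells then receive a tenfold-diluted 0.5 McFarland inoculum and incubate 18 ± 2 h at 35 ± 2 °C. Absorbance at 570 nm gives the MIC.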

[2] = test system: Candida krusei ATCC 14243; test: Broth microdilution, C. krusei ATCC 14243
In short: (§2)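 MIC: A570 after 18 ± 2 h, 35 ± 2 °C. Medium: MH broth (bacterium) or MH + 2% glucose (yeasts). Serial 2-fold dilutions of compound, top solution 1000 µg/mL. Inoculum: 0.5 McFarland suspension diluted 10×. MBC/MFC: subculture onto MHA or MHA + 2% glc, 99.9% growth inhibition.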

[3] = test system: Micrococcus luteus ATCC 10240; test: Broth microdilution, M. luteus ATCC 10240; settings: for MBC/MIC Ratio: <4 bactericidal, ≥4 bacteriostatic
In short: as §1

[4] = test system: Candida glabrata ATCC 15126; test: Broth microdilution, C. glabrata ATCC 15126
In short: as §2

[5] = test system: Candida lusitaniae ATCC 3449; test: Broth microdilution, C. lusitaniae ATCC 3449
In short: as §2

Gram-positive bacteria = test: Broth microdilution, Gram-positive bacteria; settings: strains as named in the sentence
Procedure: The antibacterial activity of the obtained thiosemicarbazides and hydrazide–hydrazones was determined by evaluating their ability to inhibit microbial growth in vitro using the broth microdilution method, according to the guidelines of the European Committee on Antimicrobial Susceptibility Testing (EUCAST). The method involved the preparation of microbial suspensions with a standardized density of 0.5 on the McFarland scale (equivalent to 1.5 × 10^8 colony-forming units/mL for bacteria and […] for fungi). A solution of the test substances was then prepared (initial concentration 1000 µg/mL, diluted in sterile Mueller-Hinton broth for bacteria or Mueller-Hinton with 2% glucose for fungi). The test was carried out in 96-well polystyrene flat-bottom plates (Medlab, Poland) with 100 µL of appropriate sterile microbiological medium in each well. […] After incubation, the spectrophotometric absorbance at 570 nm in each well of the plate was read. […] The MBC value was determined by adding 5 µL of the contents of each well of the plate to solid sterile MHA or MHA + 2%glc medium for bacteria and fungi, respectively. […] In addition, the quotient MBC(MFC)/MIC could be determined to assess the nature of the activity of the test substance. […]

[6] = test system: Candida parapsilosis ATCC 22019; test: Broth microdilution, C. parapsilosis ATCC 22019
In short: as §2

[7] = test system: Bacillus cereus ATCC 10876; test: Broth microdilution, B. cereus ATCC 10876; settings: for MBC/MIC Ratio: <4 bactericidal, ≥4 bacteriostatic
In short: as §2

[8] = test system: Candida glabrata ATCC 90030; test: Broth microdilution, C. glabrata ATCC 90030
In short: as §2

[9] = test system: Bacillus subtilis ATCC 6633; test: Broth microdilution, B. subtilis ATCC 6633; settings: for MBC/MIC Ratio: <4 bactericidal, ≥4 bacteriostatic
In short: as §1

[10] = test system: Staphylococcus epidermidis ATCC 12228; test: Broth microdilution, S. epidermidis ATCC 12228
In short: as §1

[11] = test system: Candida tropicalis ATCC 1369; test: Broth microdilution, C. tropicalis ATCC 1369
In short: as §2

Candida auris CDC B11903 = test: Broth microdilution, C. auris CDC B11903
In short: as §2

[12] = test system: Staphylococcus aureus ATCC 6538; test: Broth microdilution, S. aureus ATCC 6538
In short: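 EUCAST broth microdilution: inoculum 0.5 McFarland, 10-fold diluted; Mueller-Hinton broth (bacteria) or MH + 2% glucose (yeast); twofold dilutions from 1000 µg/mL; 18 ± 2 h at 35 ± 2 °C, A570 read for MIC. MBC/MFC from subculture on MHA or MHA + 2% glc (99.9% kill).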

[13] = test system: Staphylococcus aureus ATCC 25923; test: Broth microdilution, S. aureus ATCC 25923
In short: as §1

Candida spp. = test: Broth microdilution, Candida spp.
Procedure: The antibacterial activity of the obtained thiosemicarbazides and hydrazide–hydrazones was determined by evaluating their ability to inhibit microbial growth in vitro using the broth microdilution method, according to the guidelines of the European Committee on Antimicrobial Susceptibility Testing (EUCAST). The method involved the preparation of microbial suspensions with a standardized density of 0.5 on the McFarland scale (equivalent to 1.5 × 10^8 colony-forming units/mL for bacteria and […] for fungi). A solution of the test substances was then prepared (initial concentration 1000 µg/mL, diluted in sterile Mueller-Hinton broth for bacteria or Mueller-Hinton with 2% glucose for fungi). The test was carried out in 96-well polystyrene flat-bottom plates (Medlab, Poland) with 100 µL of appropriate sterile microbiological medium in each well. The first wells were filled with 200 µL of the test substance, diluted to the initial concentration, and then double-decreasing dilutions were made under aseptic conditions using an automatic pipette. The final step was the addition of a 10-fold diluted microbial suspension of 2 µL. At the same time, the following controls were included: (a) medium control (100 µL of sterile medium without microorganisms added), (b) microbial viability control, (c) test substance control (dilutions without added micro-organisms), (d) positive control of the drug used in the clinic. The plates thus prepared were incubated for 18 ± 2 h at 35 ± 2 °C under conditions optimal for the growth of the test microorganisms. After incubation, the spectrophotometric absorbance at 570 nm in each well of the plate was read. The aim of this part of the study was to determine two parameters: the minimum inhibitory concentration (MIC) and the minimum bactericidal or fungicidal concentration (MBC/MFC) of the test compound. […] The MBC value was determined by adding 5 µL of the contents of each well of the plate to solid sterile MHA or MHA + 2%glc medium for bacteria and fungi, respectively. The area on the plate where 99.9% inhibition of microbial growth was observed indicated the lethal concentration. In addition, the quotient MBC(MFC)/MIC could be determined to assess the nature of the activity of the test substance. If MBC(MFC)/MIC was <4, the test substance was bactericidal/fungicidal, whereas if MBC(MFC)/MIC was ≥4, it was bacteriostatic/fungistatic. Amoxicillin (Glentham Life Sciences, USA) and nystatin (Glentham Life Sciences, USA) were used as the controls for this assay.
The test was performed either on bacteria, comprising: Gram-positive (Staphylococcus aureus ATCC 25923, Staphylococcus aureus ATCC 6538, Staphylococcus aureus ATCC 43300 methicillin-resistant MRSA, Staphylococcus epidermidis ATCC 12228, Micrococcus luteus ATCC 10240, Bacillus subtilis ATCC 6633, Bacillus cereus ATCC 10876) and Gram-negative (Escherichia coli ATCC 25922, Pseudomonas aeruginosa ATCC 27853, Proteus mirabilis ATCC 12453, Klebsiella pneumoniae ATCC 13883) or yeast (Candida parapsilosis ATCC 22019, Candida glabrata ATCC 90030, Candida krusei ATCC 14243, Candida glabrata ATCC 15126, Candida tropicalis ATCC 1369, Candida auris CDC B11903, Candida lusitaniae ATCC 3449) reference strains from the American Type Culture Collection (ATCC) or the Centers for Disease Control and Prevention (CDC).

[14] = Staphylococcus epidermidis, ATCC12228
[15] = Staphylococcus aureus, ATCC25923
[16] = range over both strains and the listed compounds

Structure (SMILES): Cn1cc([N+](=O)[O-])nc1C(=O)NNC(=S)Nc1ccc([N+](=O)[O-])cc1 [Compound 18, 1-[(1-methyl-4-nitroimidazol-2-yl)carbonyl]-4-(4-nitrophenyl)-thiosemicarbazide]
- MIC ([1]; Staphylococcus aureus): > 1000 µg/mL
- MIC ([2]; Pichia kudriavzevii, ATCC14243): > 1000 µg/mL
- MBC ([3]; Micrococcus luteus, ATCC10240): 1000 µg/mL (≈ 2740 µM)
- MIC ([3]; Micrococcus luteus, ATCC10240): 500 µg/mL (≈ 1370 µM)
- MBC/MIC Ratio ([3]; Ml 10240): 2
- MIC ([4]; Nakaseomyces glabratus, ATCC15126): > 1000 µg/mL
- MIC ([5]; Clavispora lusitaniae, ATCC3449): > 1000 µg/mL
- MIC (range or value for several Gram-positive strains) (Gram-positive bacteria): 500 to 1000 µg/mL
- MIC ([6]; Lodderomyces parapsilosis, ATCC22019): > 1000 µg/mL
- MBC ([7]; Bacillus cereus, ATCC10876): 1000 µg/mL (≈ 2740 µM)
- MIC ([7]; Bacillus cereus, ATCC10876): 1000 µg/mL (≈ 2740 µM)
- MBC/MIC Ratio ([7]; Bc 10876): 1
- MIC ([8]; Nakaseomyces glabratus, ATCC90030): > 1000 µg/mL
- MBC ([9]; Bacillus subtilis, ATCC6633): 1000 µg/mL (≈ 2740 µM)
- MIC ([9]; Bacillus subtilis, ATCC6633): 1000 µg/mL (≈ 2740 µM)
- MBC/MIC Ratio ([9]; Bs 6633): 1
- MBC [10, 14]: > 1000 µg/mL
- MIC [10, 14]: 1000 µg/mL (≈ 2740 µM)
- MFC ([11]; Candida tropicalis, ATCC1369): > 1000 µg/mL
- MIC ([11]; Candida tropicalis, ATCC1369): 500 µg/mL (≈ 1370 µM)
- MIC (Candida auris CDC B11903; Candidozyma auris, CDCB11903): > 1000 µg/mL
- MIC ([12]; Staphylococcus aureus, ATCC6538): > 1000 µg/mL
- MBC [13, 15]: > 1000 µg/mL
- MIC [13, 15]: 500 µg/mL (≈ 1370 µM)

Structure (SMILES): COc1cccc(NC(=S)NNC(=O)c2nc([N+](=O)[O-])cn2C)c1 [Compound 10]
- MBC ([1]; Sa 43300 MRSA): >1000 µg/mL
- MIC ([1]; Sa 43300 MRSA): 500 µg/mL (≈ 1430 µM)
- MIC ([2]; Ck 14243): >1000 µg/mL
- MBC ([3]; Ml 10240): 250 µg/mL (≈ 714 µM)
- MIC ([3]; Ml 10240): 250 µg/mL (≈ 714 µM)
- MBC/MIC Ratio ([3]; Ml 10240): 1
- MIC ([4]; Cg 15126): >1000 µg/mL
- MIC ([5]; Cl 3449): >1000 µg/mL
- MFC ([6]; Cp 22019): >1000 µg/mL
- MIC ([6]; Cp 22019): 250 µg/mL (≈ 714 µM)
- MBC ([7]; Bc 10876): 1000 µg/mL (≈ 2850 µM)
- MIC ([7]; Bc 10876): 500 µg/mL (≈ 1430 µM)
- MBC/MIC Ratio ([7]; Bc 10876): 2
- MIC ([8]; Cg 90030): >1000 µg/mL
- MBC ([9]; Bs 6633): 500 µg/mL (≈ 1430 µM)
- MIC ([9]; Bs 6633): 125 µg/mL (≈ 357 µM)
- MBC/MIC Ratio ([9]; Bs 6633): 4
- MBC ([10]; Se 12228): 500 µg/mL (≈ 1430 µM)
- MIC ([10]; Se 12228): 500 µg/mL (≈ 1430 µM)
- MBC/MIC Ratio ([10]; Se 12228, <4 bactericidal, ≥4 bacteriostatic): 1
- MFC ([11]; Ct 1369): 1000 µg/mL (≈ 2850 µM)
- MIC ([11]; Ct 1369): 250 µg/mL (≈ 714 µM)
- MFC/MIC Ratio ([11]; Ct 1369, <4 fungicidal, ≥4 fungistatic): 4
- MIC (Candida auris CDC B11903; Ca B11903): >1000 µg/mL
- MBC ([12]; Sa 6538): >1000 µg/mL
- MIC ([12]; Sa 6538): 1000 µg/mL (≈ 2850 µM)
- MBC ([13]; Sa 25923): >1000 µg/mL
- MIC ([13]; Sa 25923): 250 µg/mL (≈ 714 µM)
- antifungal activity towards tested Candida strains (Candida spp.; in words): fungistatic activity
- MBC (range, C. parapsilosis ATCC 22019 and C. tropicalis ATCC 1369) (Candida spp.; [16]): 500 to 1000 µg/mL
- MIC (range, C. parapsilosis ATCC 22019 and C. tropicalis ATCC 1369) (Candida spp.; [16]): 62.5 to 1000 µg/mL

From article PMC11243693, “Synthesis and Biological Evaluation of New Compounds with Nitroimidazole Moiety” (Molecules, 2024)
